Drawing on the NIST ThermoML archive (doi:10.1021/je0495942), this text covers activity coefficient for nine compounds.

This series is described as follows: activity coefficient (dimensionless); of the first substance listed, at infinite dilution; xn = mol fraction of the nth substance listed. Particulars: 101.33 kPa, Liquid, Chromatography, x1 = 0.

Where “and” joins values, the source holds several entries; their conditions need not be identical. Equal entries are not always repeated. Numbers after ± are expanded uncertainties.

As to `CC(=O)C(C)=O` [2,3-butanedione] + O, the activity coefficient was 13.3 and 13.2 (298.1 K); 13.2 and 13.1 (298.17 K).
As for `CCCCC(C)=O` [2-hexanone] + O, the activity coefficient (297.85 K) was determined as 319 ± 14 and the activity coefficient (298.15 K) stood at 265 ± 12.
In the case of `CSC` [2-thiapropane] + O, the activity coefficient is 175 and 173 and 171 (298.01 K); 184 and 185 (298.02 K); 170 and 173 (298.03 K); 178 ± 12 (298.07 K).
Turning to `CC(C)=O` [acetone] + O, the activity coefficient was 7.62 and 7.68 (298.01 K); 7.64 and 7.7 (298.03 K); 7.68 and 7.74 (298.04 K); 7.7 ± 0.34 (298.17 K).
For `CCC(C)=O` [butanone] + O, the activity coefficient worked out at 25.8 ± 1.1 (297.85 K) and 26.1 ± 1.2 (298.15 K).
`CC=O` [ethanal] + O: the activity coefficient by setting is: (298.13 K) 4.13 [middle of 4 runs]; (298.15 K) 4.14 ± 0.19.
Regarding `CCO` [ethanol] + O, the activity coefficient (298.15 K) was determined as 3.77 ± 0.17.
For the compound `CCCC(C)=O` [pentan-2-one] + O, the activity coefficient amounted to 129 ± 6 (297.85 K) and 148 ± 7 (298.15 K).
`CCCO` [propan-1-ol] + O: the activity coefficient by setting is: (298.01 K) 13.4 ± 0.6; (298.03 K) 13.3 ± 0.6; (298.04 K) 13.3 ± 0.6; (298.1 K) 13.4 and 13.3.
